Experimental data as given in publication PMC12785453, “Oral Fluid Concentrations and Pharmacological Effects of Clephedrone and Methylone in Humans” (International Journal of Molecular Sciences, 2025).

System: healthy male participants
Test: Subjective effects, visual analog scales (VAS), methylone trial
Format: in vivo, humans
Procedure: Methylone pharmacology was evaluated in a study designed as a randomized, double-blind, placebo-controlled, crossover clinical trial. Four pilot studies were conducted administering methylone at oral doses of 50 (n = 3), 100 (n = 6), 150 (n = 5), and 200 mg (n = 7). Participants attended 3 experimental sessions separated by a one-week wash-out period and received two doses of methylone (one dose per experimental session) compared to placebo, except in the last pilot study in which participants received one dose of methylone, compared to MDMA and placebo. However, in this manuscript, only the results corresponding to the highest methylone doses (n = 12; 150 and 200 mg; mean dose = 179.2 mg) are presented, to enable comparison with clephedrone self-administration. Participants were recruited by word of mouth in the volunteer database of the clinical pharmacology unit.
Methylone hydrochloride of high purity in powder form was acquired from LGC Standards (Teddington, UK) for the controlled study. The Pharmacy Department of the Hospital Universitari Germans Trias i Pujol was responsible for manufacturing, storing, and dispensing identical and opaque soft gelatin capsules containing 50 mg of methylone or a placebo (maltodextrin). Treatment consisted of 5 capsules that combined methylone and/or a placebo to reach the target dose. Details can be found in the previous article.
Subjective effects were evaluated with visual analog scales (VAS), the short form of the Addiction Research Center Inventory (ARCI), and the Evaluation of Subjective Effects of Substances with Abuse Potential questionnaire (VESSPA-SSE). In addition, the Sensitivity to Drug Reinforcement Questionnaire (SDRQ) and a pharmacological identification class questionnaire were used in the controlled study administering methylone.
VAS encompassed several adjectives that participants had to rate from “not at all” (0 mm) to “extremely” (100 mm) according to their sensations. This scale included 28 items: intensity, stimulated, high, good effects, bad effects, liking, changes in distances, changes in colors, changes in shapes, changes in lights, hallucinations (seeing lights or spots), hallucinations (seeing things, animals, insects, or people), changes in hearing, hallucinations (hearing sounds or voices), drowsiness, concentration, dizziness, confusion, different or changed body feeling, unreal body feeling, different surroundings, unreal surroundings, open, trust, feeling close to others, I want to be with other people, I want to hug someone, sexual desire, and sexual arousal.
Participants included in the naturalistic clephedrone study completed VAS at baseline, 0.50, 1, 1.5, 2, 3, 4, and 5 h, and ARCI and VESSPA at baseline, 1, 2, 3, 4, and 5 h after self-administering clephedrone. In the controlled study, VAS was performed at baseline and 0.25, 0.50, 0.75, 1, 1.5, 2, 3, 4, 6, 8, 10, and 24 h, and ARCI and VESSPA at baseline and 1, 2, 3, 4, 6, 8, and 10 h after administering methylone. Participants completed SDRQ and VAS sexual desire and arousal at baseline, 1 and 10 h, and the pharmacological class identification questionnaire at 8 h.
For statistical analysis, values of physiological (SBP, DBP, HR, and T) and subjective effects (VAS, ARCI, and VESSPA-SSE) were baseline–adjusted. Maximum effects (Emax) and the time needed to reach maximum effects (Tmax) were determined, and the area under the curve up to 5 h (AUC0–5h) for clephedrone and up to 6 h (AUC0–6h) for methylone was calculated using the trapezoidal rule. Emax and AUC values are presented as mean ± standard deviation, whereas Tmax is presented in median (range).
To find possible significant changes through the time course compared to baseline, a Dunnett multiple comparison test was carried out to compare each time point with baseline in both drug conditions. […]

[1] = 150 or 200 mg oral, n=12, listed as methylone
[2] = AUC0–6h, 150 or 200 mg oral, n=12

In the case of `CNC(C)C(=O)c1ccc2c(c1)OCO2` (stereo not shown) [Methylone, 3,4-methylenedioxy-N-methylcathinone], the “VAS Bad effects Emax” value (150 or 200 mg oral, n=12) is reported as 0.17 ± 0.58 mm, the “VAS Changes in colors Emax” value (150 or 200 mg oral, n=12) is reported as 0.00 ± 0.00 mm and the “VAS Changes in colors Tmax” value (150 or 200 mg oral, n=12) is reported as 0.0 (0.0–0.0) h. The “VAS Changes in distances Emax” value (150 or 200 mg oral, n=12) was 1.58 ± 5.48 mm, the “VAS Changes in distances Tmax” value (150 or 200 mg oral, n=12) was 0.0 (0.0–1.0) h and the “VAS Changes in hearing Emax” value (150 or 200 mg oral, n=12) was 0.42 ± 1.44 mm. The “VAS Changes in hearing Tmax” value (150 or 200 mg oral, n=12) was 0.0 (0.0–0.5) h, the “VAS Changes in lights Emax” value (150 or 200 mg oral, n=12) was 0.00 ± 0.00 mm and the “VAS Changes in lights Tmax” value (150 or 200 mg oral, n=12) was 0.0 (0.0–0.0) h. The “VAS Concentration Emax” value (150 or 200 mg oral, n=12) was 2.50 ± 4.21 mm, the “VAS Confusion Emax” value (150 or 200 mg oral, n=12) was 1.33 ± 2.57 mm and the “VAS Different or changed body feeling Emax” value (150 or 200 mg oral, n=12) was 12.25 ± 10.68 mm. For the same molecule, the “VAS Different surroundings Emax” value (150 or 200 mg oral, n=12) was 0.33 ± 1.15 mm, the “VAS Dizziness Emax” value (150 or 200 mg oral, n=12) was 3.08 ± 5.33 mm and the “VAS Drowsiness Emax” value (150 or 200 mg oral, n=12) was 10.17 ± 16.16 mm. For the same molecule, the “VAS Feeling close to others Emax” value (150 or 200 mg oral, n=12) was 15.92 ± 19.97 mm, the “VAS Good effects Emax” value (150 or 200 mg oral, n=12) was 29.75 ± 21.60 mm and the “VAS High Emax” value (150 or 200 mg oral, n=12) was 26.67 ± 18.12 mm. For the same molecule, the “VAS I want to be with other people Emax” value (150 or 200 mg oral, n=12) was 17.42 ± 20.62 mm, the “VAS I want to hug someone Emax” value (150 or 200 mg oral, n=12) was 15.33 ± 21.76 mm and the “VAS Intensity Emax” value (150 or 200 mg oral, n=12) was 25.17 ± 18.95 mm. For the same molecule, the “VAS Liking Emax” value (150 or 200 mg oral, n=12) was 30.33 ± 23.26 mm, the “VAS Open Emax” value (150 or 200 mg oral, n=12) was 15.67 ± 19.21 mm and the “VAS Sexual arousal Emax” value (150 or 200 mg oral, n=12) was 0.50 ± 1.45 mm. The “VAS Sexual desire Emax” value (150 or 200 mg oral, n=12) was 1.08 ± 2.07 mm, the “VAS Trust Emax” value (150 or 200 mg oral, n=12) was 15.92 ± 20.07 mm and the “VAS Unreal body feeling Emax” value (150 or 200 mg oral, n=12) was 0.00 ± 0.00 mm. For the same molecule, the “VAS Unreal surroundings Emax” value (150 or 200 mg oral, n=12) was 0.00 ± 0.00 mm, the “VAS Feeling close to others Emax” value [1] was greater than 15 mm and the “VAS Good effects Emax” value [1] was “exceeding 20 mm”. The “VAS High Emax” value [1] was “exceeding 20 mm”, the “VAS I want to be with other people Emax” value [1] was greater than 15 mm and the “VAS I want to hug someone Emax” value [1] was greater than 15 mm. The “VAS Intensity Emax” value [1] was “exceeding 20 mm”, the “VAS Liking Emax” value [1] was “exceeding 20 mm” and the “VAS Open Emax” value [1] was greater than 15 mm. The “VAS Stimulated Emax” value [1] was “exceeding 20 mm”, the “VAS Trust Emax” value [1] was greater than 15 mm and the “VAS Bad effects AUC0-5/6 h” value [2] was 0.06 ± 0.22 mm·h. The “VAS Changes in colors AUC0-5/6 h” value [2] was 0.00 ± 0.00 mm·h, the “VAS Changes in distances AUC0-5/6 h” value [2] was 0.72 ± 2.49 mm·h and the “VAS Changes in hearing AUC0-5/6 h” value [2] was 0.10 ± 0.36 mm·h. For the same molecule, the “VAS Changes in lights AUC0-5/6 h” value [2] was 0.00 ± 0.00 mm·h, the “VAS Concentration AUC0-5/6 h” value [2] was 1.95 ± 3.58 mm·h and the “VAS Confusion AUC0-5/6 h” value [2] was 1.46 ± 3.43 mm·h. For the same molecule, the “VAS Different or changed body feeling AUC0-5/6 h” value [2] was 7.96 ± 8.16 mm·h, the “VAS Different surroundings AUC0-5/6 h” value [2] was 0.17 ± 0.58 mm·h and the “VAS Dizziness AUC0-5/6 h” value [2] was 3.31 ± 6.88 mm·h. For the same molecule, the “VAS Drowsiness AUC0-5/6 h” value [2] was 19.98 ± 33.41 mm·h, the “VAS Feeling close to others AUC0-5/6 h” value [2] was 14.20 ± 16.71 mm·h and the “VAS Good effects AUC0-5/6 h” value [2] was 26.38 ± 22.79 mm·h. The “VAS High AUC0-5/6 h” value [2] was 22.85 ± 18.54 mm·h, the “VAS I want to be with other people AUC0-5/6 h” value [2] was 16.94 ± 19.79 mm·h and the “VAS I want to hug someone AUC0-5/6 h” value [2] was 14.27 ± 19.51 mm·h. For the same molecule, the “VAS Intensity AUC0-5/6 h” value [2] was 20.30 ± 18.35 mm·h, the “VAS Liking AUC0-5/6 h” value [2] was 28.45 ± 24.43 mm·h and the “VAS Open AUC0-5/6 h” value [2] was 15.04 ± 17.47 mm·h. For the same molecule, the “VAS Sexual arousal AUC0-5/6 h” value [2] was 2.50 ± 7.23 mm·h, the “VAS Sexual desire AUC0-5/6 h” value [2] was 5.42 ± 10.33 mm·h and the “VAS Stimulated AUC0-5/6 h” value [2] was 20.30 ± 18.35 mm·h. The “VAS Trust AUC0-5/6 h” value [2] was 15.08 ± 18.74 mm·h, the “VAS Unreal body feeling AUC0-5/6 h” value [2] was 0.00 ± 0.00 mm·h and the “VAS Unreal surroundings AUC0-5/6 h” value [2] was 0.00 ± 0.00 mm·h. For the same molecule, the “Time of peak pharmacological effects” value (oral) was 0.75–1 h.
